Molecular target: T1, Recombinant human liver GK1 (GST-GK) (Homo sapiens, UniProt P35557)
T1 construct: made in house; host or cells: E. coli
T1 sequence (P35557 1-466 isoform P35557-2): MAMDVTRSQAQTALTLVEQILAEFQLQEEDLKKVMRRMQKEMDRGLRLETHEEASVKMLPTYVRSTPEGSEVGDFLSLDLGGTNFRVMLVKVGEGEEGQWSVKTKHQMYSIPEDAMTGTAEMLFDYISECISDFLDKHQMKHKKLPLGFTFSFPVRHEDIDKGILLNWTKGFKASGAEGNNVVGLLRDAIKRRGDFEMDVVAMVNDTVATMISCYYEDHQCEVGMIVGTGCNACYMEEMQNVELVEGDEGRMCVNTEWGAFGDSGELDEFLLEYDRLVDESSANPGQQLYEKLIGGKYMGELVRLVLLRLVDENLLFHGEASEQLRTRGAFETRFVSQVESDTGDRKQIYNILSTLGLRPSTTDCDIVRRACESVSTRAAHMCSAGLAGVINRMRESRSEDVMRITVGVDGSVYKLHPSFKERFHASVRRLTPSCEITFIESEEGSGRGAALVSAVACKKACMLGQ
Assay: In vitro glucokinase activity (G6PDH-coupled NADH assay)
Format: biochemical
Details: for SC1.5 (concentration of activator that produced a 50% increase in the activity of GK): 30° C., 5 mM D-glucose, 10% DMSO; for fold act. @ 30 μM: at 30 μM test compound
Method in brief: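 Activation measured as the rate of OD340 rise from G6PDH-coupled NADH production, relative to 10% DMSO control, reported as SC1.5 (concentration for 50% activity increase). Conditions: 30° C, pH 7.1 Hepes, 5 mM glucose, 1 mM ATP, purified recombinant GST-human GK1, compound preincubated 10 min before enzyme addition.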

| Structure (SMILES) | SC1.5 (concentration of activator that produced a 50% increase in the activity of GK) | fold act. @ 30 μM |
| --- | --- | --- |
| Cl.Cn1ccc(NC(=O)[C@H](CC2CCCCC2)N2CC(Oc3ccccc3C(F)(F)F)=CC2=O)n1 [Example 90, (S)-3-Cyclohexyl-N-(1-methyl-1H-pyrazol-3-yl)-2-[2-oxo-4-(2-trifluoromethyl-phenoxy)-2,5-dihydro-pyrrol-1-yl]-propionamide Hydrochloride] | 0.088 µM |  |
| COC1=CC(=O)N([C@@H](CC2CCCC2)C(=O)Nc2ccn(CC(C)(C)O)n2)C1 [Example 1, (S)-3-Cyclopentyl-N-[1-(2-hydroxy-2-methyl-propyl)-1H-pyrazol-3-yl]-2-(4-methoxy-2-oxo-2,5-dihydro-pyrrol-1-yl)-propionamide] | 3.771 µM |  |
| CC(C)OC1=CC(=O)N([C@@H](CC2CCCC2)C(=O)Nc2cnccn2)C1 [Example 23, (S)-3-Cyclopentyl-N-(pyrazin-2-yl)-2-(4-isopropoxy-2-oxo-2,5-dihydro-pyrrol-1-yl)-propionamide] | 5.216 µM |  |
| CC(C)NC1=CC(=O)N([C@@H](CC2CCCC2)C(=O)Nc2ccn(CC(C)(C)O)n2)C1 [Example 234, (S)-3-cyclopentyl-N-[1-(2-hydroxy-2-methyl-propyl)-1H-pyrazol-3-yl]-2-(4-isopropylamino-2-oxo-2,5-dihydro-pyrrol-1-yl)-propionamide] | 4.624 µM |  |
| CC(C)C[C@@H](C(=O)Nc1cnccn1)N1CC(Oc2ccc(C[C@H](O)CO)cc2)=CC1=O [Example 244, (S)-2-{4-[4-((S)-2,3-Dihydroxy-propyl)-phenoxy]-2-oxo-2,5-dihydro-pyrrol-1-yl}-4-methyl-pentanoic acid pyrazin-2-ylamide] | 0.158 µM |  |
| CC(C)C[C@@H](C(=O)Nc1nc(CCC(F)(F)F)ns1)N1CC(Oc2ccccc2Cl)=CC1=O [Example 106, (S)-2-[4-(2-Chloro-phenoxy)-2-oxo-2,5-dihydro-pyrrol-1-yl]-4-methyl-pentanoic acid [3-(3,3,3-trifluoro-propyl)-[1,2,4]thiadiazol-5-yl]-amide] | ~30 µM | 1.5 fold |
| COc1ccc(Cc2nsc(NC(=O)[C@H](CC(C)C)N3CC(Oc4ccccc4Cl)=CC3=O)n2)cc1 [Example 109, (S)-2-[4-(2-Chloro-phenoxy)-2-oxo-2,5-dihydro-pyrrol-1-yl]-4-methyl-pentanoic acid [3-(4-methoxy-benzyl)-[1,2,4]thiadiazol-5-yl]-amide] | > 30 µM | 1.3 fold |
| CC(C)(O)Cn1ccc(NC(=O)C(Cc2c(Cl)cccc2Cl)N2CC(Oc3c(F)cccc3F)=CC2=O)n1 (stereo not drawn) [Example 225, 3-(2,6-Dichloro-phenyl)-2-[4-(2,6-difluoro-phenoxy)-2-oxo-2,5-dihydro-pyrrol-1-yl]-N-[1-(2-hydroxy-2-methyl-propyl)-1H-pyrazol-3-yl]-propionamide] | > 30 µM | 1.4 fold |

Now from value to compound:

| SC1.5 (concentration of activator that produced a 50% increase in the activity of GK) | fold act. @ 30 μM | Structure (SMILES) |
| --- | --- | --- |
| 0.012 µM |  | COc1cccc(OC2=CC(=O)N([C@@H](CC3CCCCC3)C(=O)Nc3ccn(CC(C)(C)O)n3)C2)c1 [Example 208, (S)-3-cyclohexyl-N-[1-(2-hydroxy-2-methyl-propyl)-1H-pyrazol-3-yl]-2-[4-(3-methoxy-phenoxy)-2-oxo-2,5-dihydro-pyrrol-1-yl]-propionamide] |
| 3.036 µM |  | CC(C)C[C@@H](C(=O)Nc1ccn(CC(C)(C)O)n1)N1CC(Oc2cccc3ocnc23)=CC1=O [Example 242, (S)-2-[4-(Benzooxazol-4-yloxy)-2-oxo-2,5-dihydro-pyrrol-1-yl]-4-methyl-pentanoic acid [1-(2-hydroxy-2-methyl-propyl)-1H-pyrazol-3-yl]-amide] |
| 1.629 µM |  | CC1(C)OC[C@@H](Cn2ccc(NC(=O)[C@H](Cc3ccccc3Cl)N3CC(Oc4ccccc4Cl)=CC3=O)n2)O1 [Example 188, (S)-2-[4-(2-chloro-phenoxy)-2-oxo-2,5-dihydro-pyrrol-1-yl]-N-[1-((R)-2,2-dimethyl-[1,3]dioxolan-4-yl-methyl)-1H-pyrazol-3-yl]-3-(2-chlorophenyl)-propionamide] |
| 1.998 µM |  | CCOc1ccccc1OC1=CC(=O)N([C@@H](CC(C)C)C(=O)Nc2ccn(CCO)n2)C1.Cl [Example 85, (S)-2-[4-(2-Ethoxy-phenoxy)-2-oxo-2,5-dihydro-pyrrol-1-yl]-4-methyl-pentanoic acid [1-(2-hydroxy-ethyl)-1H-pyrazol-3-yl]-amide Hydrochloride] |
| 0.134 µM |  | C=Cc1cccc(OC2=CC(=O)N([C@@H](CC(C)C)C(=O)Nc3ccn(C[C@@H](O)CO)n3)C2)c1F [Example 145, (S)-2-[4-(2-Fluoro-3-vinyl-phenoxy)-2-oxo-2,5-dihydro-pyrrol-1-yl]-4-methyl-pentanoic acid [1-((R)-2,3-dihydroxy-propyl)-1H-pyrazol-3-yl]-amide] |
| 1.027 µM |  | COc1cccc(OC2=CC(=O)N([C@H](CC3CCOCC3)C(=O)Nc3ccn(CC(C)(C)O)n3)C2)c1Cl [Example 52, (R)-2-[4-(2-Chloro-3-methoxy-phenoxy)-2-oxo-2,5-dihydro-pyrrol-1-yl]-N-[1-(2-hydroxy-2-methyl-propyl)-1H-pyrazol-3-yl]-3-(tetrahydro-pyran-4-yl)-propionamide] |
| 0.007 µM |  | CSc1ccccc1OC1=CC(=O)N([C@@H](CC2CCCCC2)C(=O)Nc2ccn(CC(C)(C)O)n2)C1 [Example 196, (S)-3-cyclohexyl-N-[1-(2-hydroxy-2-methyl-propyl)-1H-pyrazol-3-yl]-2-[4-(2-methylsulfanyl-phenoxy)-2-oxo-2,5-dihydro-pyrrol-1-yl]-propionamide] |
| 0.516 µM |  | CC(C)C[C@@H](C(=O)Nc1ccn(C[C@@H]2COC(C)(C)O2)n1)N1CC(Oc2cccc(N3CCCC3)c2F)=CC1=O [Example 141, (S)-2-[4-(2-Fluoro-3-pyrrolidin-1-yl-phenoxy)-2-oxo-2,5-dihydro-pyrrol-1-yl]-4-methyl-pentanoic acid [1-((R)-2,2-dimethyl-[1,3]dioxolan-4-yl-methyl)-1H-pyrazol-3-yl]-amide] |
| 0.72 µM |  | Cc1ccccc1OC1=CC(=O)N([C@@H](CC(C)C)C(=O)Nc2ccn(C)n2)C1 [Example 120, (S)-4-Methyl-2-(2-oxo-4-o-tolyloxy-2,5-dihydro-pyrrol-1-yl)-pentanoic acid (1-methyl-1H-pyrazol-3-yl)-amide] |
| 0.165 µM |  | O=C(Nc1ccn(C[C@@H](O)CO)n1)C(CC1CCOCC1)N1CC(Oc2c(F)cccc2F)=CC1=O (stereo partly drawn) [Example 44, 2-[4-(2,6-Difluoro-phenoxy)-2-oxo-2,5-dihydro-pyrrol-1-yl]-N-[1-((R)-2,3-dihydroxy-propyl)-1H-pyrazol-3-yl]-3-(tetrahydro-pyran-4-yl)-propionamide] |

Source: patent publication US7741327B2 (Hoffmann-La Roche Inc., priority 2008, dated 2010)
